Measured values reported in PubChem BioAssay AID248 (DTP/NCI, 2004).
Inconclusive results and toxic doses are left out. Cut-off read from the data, not from the text of the source: active = T/C of 150% or more; inactive = T/C below 125%.

System: L1210 leukemia ip in BDF1 mice, survival T/C
Test: NCI In Vivo Anticancer Drug Screen. Data for tumor model L1210 Leukemia (intraperitoneal) in B6D2F1 (BDF1) mice
Details: higher = longer survival
How it was run: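 Mice bearing the transplanted tumor received compound or vehicle. Survival of the treated group was divided by that of the vehicle-treated control group to give the ratio.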

[1] = endpoint: mean survival time, dose: 100.0 mg/kg/injection, schedule: Q01DX001 (ip), vehicle: saline
[2] = endpoint: mean survival time, dose: 200.0 mg/kg/injection, schedule: Q01DX001 (ip), vehicle: saline
[3] = endpoint: mean survival time, dose: 400.0 mg/kg/injection, schedule: Q01DX001 (ip), vehicle: saline
[4] = endpoint: mean survival time, dose: 100.0 mg/kg/injection, schedule: Q04DX003 (ip), vehicle: Klucel (hydroxypropylcellulose) (HPC)
[5] = endpoint: mean survival time, dose: 200.0 mg/kg/injection, schedule: Q04DX003 (ip), vehicle: Klucel (hydroxypropylcellulose) (HPC)
[6] = endpoint: mean survival time, dose: 400.0 mg/kg/injection, schedule: Q04DX003 (ip), vehicle: Klucel (hydroxypropylcellulose) (HPC)
[7] = endpoint: mean survival time, dose: 100.0 mg/kg/injection, schedule: Q01DX001 (ip), vehicle: saline with Tween-80
[8] = endpoint: mean survival time, dose: 200.0 mg/kg/injection, schedule: Q01DX001 (ip), vehicle: saline with Tween-80
[9] = endpoint: mean survival time, dose: 100.0 mg/kg/injection, schedule: Q01DX009 (ip), vehicle: saline with Tween-80
[10] = endpoint: mean survival time, dose: 200.0 mg/kg/injection, schedule: Q01DX009 (ip), vehicle: saline with Tween-80
[11] = endpoint: mean survival time, dose: 400.0 mg/kg/injection, schedule: Q01DX009 (ip), vehicle: saline with Tween-80
[12] = endpoint: mean survival time, dose: 100.0 mg/kg/injection, schedule: Q01DX009 (ip), vehicle: Klucel (hydroxypropylcellulose) (HPC)
[13] = endpoint: mean survival time, dose: 100.0 mg/kg/injection, schedule: Q04DX002 (ip), vehicle: Klucel (hydroxypropylcellulose) (HPC)
[14] = endpoint: mean survival time, dose: 200.0 mg/kg/injection, schedule: Q01DX009 (ip), vehicle: Klucel (hydroxypropylcellulose) (HPC)
[15] = endpoint: mean survival time, dose: 200.0 mg/kg/injection, schedule: Q04DX002 (ip), vehicle: Klucel (hydroxypropylcellulose) (HPC)
[16] = endpoint: mean survival time, dose: 400.0 mg/kg/injection, schedule: Q01DX009 (ip), vehicle: Klucel (hydroxypropylcellulose) (HPC)
[17] = endpoint: mean survival time, dose: 400.0 mg/kg/injection, schedule: Q04DX002 (ip), vehicle: Klucel (hydroxypropylcellulose) (HPC)
[18] = endpoint: mean survival time, dose: 50.0 mg/kg/injection, schedule: Q01DX009 (ip), vehicle: saline with Tween-80

Measured: T/C

O=c1c2ccccc2nnn1-c1ccc([N+](=O)[O-])cc1
inactive: [1] 97 % of control | [2] 94 % of control | [3] 95 % of control

Cc1cc(C(=O)Nc2ccc(C3=NCCN3)cc2)ccc1C(=O)Nc1ccc(C2=NCCN2)cc1
inactive: endpoint: mean survival time, dose: 3.75 mg/kg/injection, schedule: Q01DX Z (ip), vehicle: saline 98 % of control | endpoint: mean survival time, dose: 7.5 mg/kg/injection, schedule: Q01DX Z (ip), vehicle: saline 102 % of control | endpoint: mean survival time, dose: 15.0 mg/kg/injection, schedule: Q01DX Z (ip), vehicle: saline 119 % of control
active: endpoint: mean survival time, dose: 60.0 mg/kg/injection, schedule: Q01DX Z (ip), vehicle: saline 196 % of control | endpoint: mean survival time, dose: 120.0 mg/kg/injection, schedule: Q01DX Z (ip), vehicle: saline 157 % of control | endpoint: mean survival time, dose: 240.0 mg/kg/injection, schedule: Q01DX Z (ip), vehicle: saline 175 % of control

CN(Cc1cnc2nc(N)nc(N)c2n1)c1ccc(C(=O)NC(CCC(=O)O)C(=O)O)cc1F (stereo not drawn)
active: endpoint: median survival time, dose: 1.25 mg/kg/injection, schedule: Q01DX009 (ip), vehicle: other 150 % of control | endpoint: median survival time, dose: 2.5 mg/kg/injection, schedule: Q01DX009 (ip), vehicle: other 161 % of control

ClCCCN(CCCCl)c1ccc(C=Nc2cccc(Cl)c2)c(Cl)c1
inactive: [4] 101 % of control | [5] 102 % of control | [6] 95 % of control

COc1cc2c[n+](C)c3c4ccccc4ccc3c2cc1OC
inactive: [7] 88 % of control | [8] 88 % of control

CCCCC(CC)C(O)CC(O)CC (stereo not drawn)
inactive: [9] 92 % of control | [10] 92 % of control | [11] 95 % of control

CCc1nc(Cl)c(Cl)[nH]1
inactive: [7] 107 % of control | [8] 103 % of control

CCCC/C(=N/Nc1ccc([N+](=O)[O-])cc1[N+](=O)[O-])c1ccc(Cl)cc1
inactive: [1] 98 % of control | [2] 88 % of control | [3] 102 % of control

Clc1ccccc1C1OC1c1ccccc1Cl (stereo not drawn)
inactive: [12] 105 % of control | [13] 98 % of control | [14] 102 % of control | [15] 91 % of control | [16] 94 % of control | [17] 102 % of control

C=C(C)C(=Nc1ccc(Cl)c(Cl)c1)N(C)C
inactive: endpoint: mean survival time, dose: 55.0 mg/kg/injection, schedule: Q01DX Z (ip), vehicle: methylcellulose (MC) 98 % of control | endpoint: mean survival time, dose: 83.0 mg/kg/injection, schedule: Q01DX Z (ip), vehicle: methylcellulose (MC) 93 % of control | endpoint: mean survival time, dose: 125.0 mg/kg/injection, schedule: Q01DX Z (ip), vehicle: methylcellulose (MC) 93 % of control

c1ccc(C(c2ccccc2)C2CCCCC2)cc1
inactive: [4] 87 % of control | [5] 90 % of control

N/C(=N\[N+](=O)[O-])N(CCCCl)N=O
inactive: endpoint: mean survival time, dose: 3.12 mg/kg/injection, schedule: Q01DX Z (ip), vehicle: saline 105 % of control | endpoint: mean survival time, dose: 6.25 mg/kg/injection, schedule: Q01DX Z (ip), vehicle: saline 106 % of control | endpoint: mean survival time, dose: 12.5 mg/kg/injection, schedule: Q01DX Z (ip), vehicle: saline 106 % of control | endpoint: mean survival time, dose: 18.75 mg/kg/injection, schedule: Q01DX009 (ip), vehicle: saline with Tween-80 107 % of control | endpoint: mean survival time, dose: 25.0 mg/kg/injection, schedule: Q01DX Z (ip), vehicle: saline 120 % of control | endpoint: mean survival time, dose: 37.5 mg/kg/injection, schedule: Q01DX009 (ip), vehicle: saline with Tween-80 103 % of control | endpoint: mean survival time, dose: 40.0 mg/kg/injection, schedule: Q01DX Z (ip), vehicle: carboxymethylcellulose (CMC) 119 % of control | endpoint: mean survival time, dose: 50.0 mg/kg/injection, schedule: Q01DX001 (ip), vehicle: saline 108 % of control | endpoint: mean survival time, dose: 60.0 mg/kg/injection, schedule: Q01DX Z (ip), vehicle: carboxymethylcellulose (CMC) 116 % of control | endpoint: mean survival time, dose: 75.0 mg/kg/injection, schedule: Q01DX009 (ip), vehicle: saline with Tween-80 123 % of control | endpoint: mean survival time, dose: 90.0 mg/kg/injection, schedule: Q01DX Z (ip), vehicle: carboxymethylcellulose (CMC) 111 % of control | [1] 97 % of control | endpoint: mean survival time, dose: 150.0 mg/kg/injection, schedule: Q01DX009 (ip), vehicle: saline with Tween-80 104 % of control | [2] 106 % of control

O=c1[nH]n(-c2ccccc2)c(=O)cc1Cl
inactive: [18] 97 % of control | [9] 89 % of control | [10] 86 % of control

NC(CCl)CCl
inactive: endpoint: mean survival time, dose: 12.5 mg/kg/injection, schedule: Q01DX Z (ip), vehicle: other 92 % of control | endpoint: mean survival time, dose: 25.0 mg/kg/injection, schedule: Q01DX Z (ip), vehicle: other 100 % of control | endpoint: mean survival time, dose: 100.0 mg/kg/injection, schedule: Q01DX Z (ip), vehicle: other 94 % of control

CC(C)(C)NC(=O)Oc1ccc(Br)cc1Br
inactive: endpoint: mean survival time, dose: 100.0 mg/kg/injection, schedule: Q01DX009 (ip), vehicle: saline 104 % of control | endpoint: mean survival time, dose: 100.0 mg/kg/injection, schedule: Q04DX003 (ip), vehicle: saline 88 % of control | endpoint: mean survival time, dose: 200.0 mg/kg/injection, schedule: Q01DX009 (ip), vehicle: saline 98 % of control | endpoint: mean survival time, dose: 200.0 mg/kg/injection, schedule: Q04DX003 (ip), vehicle: saline 92 % of control | endpoint: mean survival time, dose: 400.0 mg/kg/injection, schedule: Q01DX009 (ip), vehicle: saline 104 % of control | endpoint: mean survival time, dose: 400.0 mg/kg/injection, schedule: Q04DX003 (ip), vehicle: saline 87 % of control

Cc1cc(=O)n(C)c2ccccc12
inactive: [18] 97 % of control | endpoint: mean survival time, dose: 100.0 mg/kg/injection, schedule: Q01DX001 (ip), vehicle: carboxymethylcellulose (CMC) 93 % of control | [12] 104 % of control | [9] 101 % of control | endpoint: mean survival time, dose: 200.0 mg/kg/injection, schedule: Q01DX001 (ip), vehicle: carboxymethylcellulose (CMC) 93 % of control | [14] 93 % of control | [10] 94 % of control

Cc1cc(Cl)cc(Cl)c1OCC(N)=O
inactive: endpoint: mean survival time, dose: 100.0 mg/kg/injection, schedule: Q04DX002 (ip), vehicle: saline with Tween-80 94 % of control | endpoint: mean survival time, dose: 200.0 mg/kg/injection, schedule: Q04DX002 (ip), vehicle: saline with Tween-80 94 % of control | endpoint: mean survival time, dose: 400.0 mg/kg/injection, schedule: Q04DX002 (ip), vehicle: saline with Tween-80 94 % of control

C[S+](C)CCCNC(=O)c1csc(CCNC(=O)c2ccccc2)n1
inactive: endpoint: mean survival time, dose: 12.5 mg/kg/injection, schedule: Q01DX009 (ip), vehicle: saline with Tween-80 100 % of control | endpoint: mean survival time, dose: 12.5 mg/kg/injection, schedule: Q04DX003 (ip), vehicle: saline with Tween-80 103 % of control | endpoint: mean survival time, dose: 25.0 mg/kg/injection, schedule: Q01DX009 (ip), vehicle: saline with Tween-80 97 % of control | endpoint: mean survival time, dose: 25.0 mg/kg/injection, schedule: Q04DX003 (ip), vehicle: saline with Tween-80 101 % of control | [18] 101 % of control | endpoint: mean survival time, dose: 50.0 mg/kg/injection, schedule: Q04DX003 (ip), vehicle: saline with Tween-80 97 % of control

C/C(=N\O)C1(O)CCCCC1
inactive: [12] 98 % of control | [4] 103 % of control | [14] 93 % of control | [5] 101 % of control | [16] 96 % of control | [6] 108 % of control

O=C1CC2CCCC(C1)S2
inactive: endpoint: mean survival time, dose: 75.0 mg/kg/injection, schedule: Q01DX001 (ip), vehicle: carboxymethylcellulose (CMC) 107 % of control | [13] 86 % of control | endpoint: mean survival time, dose: 150.0 mg/kg/injection, schedule: Q01DX001 (ip), vehicle: carboxymethylcellulose (CMC) 109 % of control | [15] 100 % of control | endpoint: mean survival time, dose: 300.0 mg/kg/injection, schedule: Q01DX001 (ip), vehicle: carboxymethylcellulose (CMC) 102 % of control | [17] 86 % of control

O=C(O)C1(c2ccccc2)OCCO1
inactive: [9] 95 % of control | [10] 94 % of control | [11] 95 % of control

O=[N+]([O-])c1ccc(OS(=O)(=O)CS(=O)(=O)Oc2ccc([N+](=O)[O-])cc2)cc1
inactive: [1] 109 % of control | [2] 114 % of control

O=C(O)CCSc1nc2ccccc2s1
inactive: endpoint: mean survival time, dose: 75.0 mg/kg/injection, schedule: Q01DX009 (ip), vehicle: Klucel (hydroxypropylcellulose) (HPC) 101 % of control | endpoint: mean survival time, dose: 150.0 mg/kg/injection, schedule: Q01DX009 (ip), vehicle: Klucel (hydroxypropylcellulose) (HPC) 88 % of control | endpoint: mean survival time, dose: 300.0 mg/kg/injection, schedule: Q01DX009 (ip), vehicle: Klucel (hydroxypropylcellulose) (HPC) 95 % of control | [6] 94 % of control
